pIC50: −log10 of the molar value.

This assay concerns PC-3. The experiment in a line: PC-3 cell proliferation assay (WST-1). Type of assay: cell-based. To be noted: Homo sapiens; inhibitory activity against PC-3 cell proliferation. As for the experimental part: A panel of cancer cell lines is obtained from the DCTP Tumor Repository, National Cancer Institute (Frederick, Md.) or ATCC (Rockville, Md.). Cell cultures are maintained in Hyclone RPMI 1640 medium (Logan, Utah) supplemented with 10% fetal bovine serum and 20 mM HEPES buffer, final pH 7.2, at 37° C. with a 5% CO2 atmosphere. Cultures are maintained at sub-confluent densities. Human umbilical vein endothelial cells (HUVEC) are purchased from Clonetics, a division of Cambrex (Walkersville, Md.). Cultures are established from cryopreserved stocks using Clonetics EGM-2 medium supplemented with 20 mM HEPES, final pH 7.2, at 37° C. with a 5% CO2 atmosphere.
For proliferation assays, cells are seeded with the appropriate medium into 96 well plates at 1,000-2,500 cells per well, depending on the cell line, and are incubated overnight. The following day, test compound, DMSO solution (negative control), or Actinomycin D (positive control) is added to the appropriate wells as 10× concentrated stocks prepared in phosphate buffered saline. The cell plates are then incubated for an additional 2-5 days, depending on the cell line, to allow proliferation to occur. To measure cell density, 50 μL of WST-1 solution (Roche Applied Science, IN) diluted 1:5 in phosphate buffered saline is added to each well, and the cells incubated for an additional 1-5 hrs., again depending on the cell line. Optical density is determined for each well at […] using a Tecan GeniosPro plate reader (RTP, NC). The percentage of cell growth is determined by comparing the cell growth in the presence of test compounds to the cells treated with DMSO vehicle (control, 100% growth) and cells treated with Actinomycin D (10 μM, 0% growth). […]
For `Cc1cn(-c2ccc3c(C)nc(N)nc3c2)c2c1C(=O)CC(C)(C)C2` [Compound 128, 1-(2-amino-4-methylquinazolin-7-yl)-3,6,6-trimethyl-6,7-dihydro-1H-indol-4(5H)-one], the negative-log IC50 (pIC50) is > 6.30.

As to `CCCCSc1cc(-n2cc(C)c3c2CC(C)(C)CC3=O)cc2ncnc(N)c12` [Compound 73, 1-(4-amino-5-(butylthio)quinazolin-7-yl)-3,6,6-trimethyl-6,7-dihydro-1H-indol-4(5H)-one], the pIC50 is 4.30 to 5.30.

Compound `Cc1cn(-c2ccc3c(N)ncnc3c2F)c2c1C(=O)CC(C)(C)C2` [Compound 43, 1-(4-amino-8-fluoroquinazolin-7-yl)-3,6,6-trimethyl-6,7-dihydro-1H-indol-4(5H)-one] gave a pIC50 of 5.30 to 6.30.

`CC1(C)CC(=O)c2c(C(F)(F)F)nn(-c3ccc4c(N)ncnc4c3)c2C1` [Compound 51, 1-(4-aminoquinazolin-7-yl)-6,6-dimethyl-3-(trifluoromethyl)-6,7-dihydro-1H-indazol-4(5H)-one] had a pIC50 of 4.30 to 5.30.

The compound `Cc1cn(-c2ccc3c(N)ncnc3c2OCCN(C)C)c2c1C(=O)CC(C)(C)C2` [Compound 52, 1-(4-amino-8-(2-(dimethylamino)ethoxy)quinazolin-7-yl)-3,6,6-trimethyl-6,7-dihydro-1H-indol-4(5H)-one] gave a pIC50 of 4.30 to 5.30.

`CCOc1c(-n2cc(C)c3c2CC(C)(C)CC3=O)ccc2c(N)ncnc12` [Compound 62, 1-(4-amino-8-ethoxyquinazolin-7-yl)-3,6,6-trimethyl-6,7-dihydro-1H-indol-4(5H)-one] gave a pIC50 of 5.30 to 6.30.

Regarding `Cc1cn(-c2cnc3c(N)nc(N)nc3c2)c2c1C(=O)CC(C)(C)C2` [Compound 139, 1-(2,4-diaminopyrido[3,2-d]pyrimidin-7-yl)-3,6,6-trimethyl-6,7-dihydro-1H-indol-4(5H)-one], the negative-log IC50 (pIC50) was > 6.30.

As for `CC1(C)CC(=O)c2c(CC3CC3)nn(-c3ccc4c(N)ncnc4c3)c2C1` [Compound 83, 1-(4-aminoquinazolin-7-yl)-3-(cyclopropylmethyl)-6,6-dimethyl-6,7-dihydro-1H-indazol-4(5H)-one], the pIC50 is 4.30 to 5.30.

`Cc1cn(-c2ccc3c(N)ncnc3c2)c2c1C(=O)CC(C)(C)C2` [Compound 39, 1-(4-aminoquinazolin-7-yl)-3,6,6-trimethyl-6,7-dihydro-1H-indol-4(5H)-one] gave a pIC50 of 5.30 to 6.30.

As to `Cc1cn(-c2ccc3c(O)ncnc3c2)c2c1C(=O)CC(C)(C)C2` [Compound 90, 1-(4-hydroxyquinazolin-7-yl)-3,6,6-trimethyl-6,7-dihydro-1H-indol-4(5H)-one], the negative-log IC50 (pIC50) was > 6.30.

Turning to `CC(=O)c1cnc(N)c2ccc(-n3cc(C)c4c3CC(C)(C)CC4=O)cc12` [Compound 107, 1-(4-acetyl-1-aminoisoquinolin-6-yl)-3,6,6-trimethyl-6,7-dihydro-1H-indol-4(5H)-one], the pIC50 is 5.30 to 6.30.

Turning to `Cc1c2c(n(-c3ccc4c(N)ncnc4c3)c1C)CC(C)(C)CC2=O` [Compound 92, 1-(4-aminoquinazolin-7-yl)-2,3,6,6-tetramethyl-6,7-dihydro-1H-indol-4(5H)-one], the negative logarithm of the IC50 (pIC50) was > 6.30.

Compound `Cc1cn(-c2ccc3c(N)ncnc3c2F)c2c1C(=O)CC(C)C2` (centres unmarked) [Compound 65, 1-(4-amino-8-fluoroquinazolin-7-yl)-3,6-dimethyl-6,7-dihydro-1H-indol-4(5H)-one] had a pIC50 of 5.30 to 6.30.

As to `Cc1cc2c(n1-c1cnc3c(N)ncnc3c1)CC(C)(C)CC2=O` [Compound 38, 1-(4-aminopyrido[3,2-d]pyrimidin-7-yl)-2,6,6-trimethyl-6,7-dihydro-1H-indol-4(5H)-one], the pIC50 is 4.30 to 5.30.

For the compound `Cc1cn(-c2cnc3c(N)ncnc3c2)c2c1C(=O)CC(C)(C)C2` [Compound 66, 1-(4-aminopyrido[3,2-d]pyrimidin-7-yl)-3,6,6-trimethyl-6,7-dihydro-1H-indol-4(5H)-one], the pIC50 was 5.30 to 6.30.

Take `Cc1cn(-c2ccc3c(N)ncc(C(N)=O)c3c2)c2c1C(=O)CC(C)(C)C2` [Compound 104, 1-amino-6-(3,6,6-trimethyl-4-oxo-4,5,6,7-tetrahydro-1H-indol-1-yl)isoquinoline-4-carboxamide]: the pIC50 is 4.30 to 5.30.

In turn, `CCCCSc1c(-n2cc(C)c3c2CC(C)(C)CC3=O)ccc2c(N)ncnc12` [Compound 54, 1-(4-amino-8-(butylthio)quinazolin-7-yl)-3,6,6-trimethyl-6,7-dihydro-1H-indol-4(5H)-one] had a negative-log IC50 (pIC50) of 5.30 to 6.30.

Consider `Cc1cn(-c2ccc3c(N)ncc(N)c3c2)c2c1C(=O)CC(C)(C)C2` [Compound 121, 1-(1,4-diaminoisoquinolin-6-yl)-3,6,6-trimethyl-6,7-dihydro-1H-indol-4(5H)-one], for which the pIC50 was 4.30 to 5.30.

With `Cc1cn(-c2ccc3c(N)ncnc3c2SCCNCC(C)(C)C)c2c1C(=O)CC(C)(C)C2` [Compound 81, 1-(4-amino-8-(2-(neopentylamino)ethylthio)quinazolin-7-yl)-3,6,6-trimethyl-6,7-dihydro-1H-indol-4(5H)-one], the negative logarithm of the IC50 (pIC50) is > 6.30.

Compound `CC1(C)CC(=O)c2c(C(F)F)nn(-c3ccc4c(N)ncc(C#N)c4c3)c2C1` [Compound 94, 1-amino-6-(3-(difluoromethyl)-6,6-dimethyl-4-oxo-4,5,6,7-tetrahydro-1H-indazol-1-yl)isoquinoline-4-carbonitrile] showed a pIC50 of 5.30 to 6.30.

Take `Cc1nn(-c2ccc3c(N)ncc(Br)c3c2)c2c1C(=O)CC(C)(C)C2` [Compound 47, 1-(1-amino-4-bromoisoquinolin-6-yl)-3,6,6-trimethyl-6,7-dihydro-1H-indazol-4(5H)-one]: the pIC50 was 4.30 to 5.30.

In turn, `Cc1cn(-c2cc(F)c3c(N)nc(N)nc3c2)c2c1C(=O)CC(C)(C)C2` [Compound 126, 1-(2,4-diamino-5-fluoroquinazolin-7-yl)-3,6,6-trimethyl-6,7-dihydro-1H-indol-4(5H)-one] gave a pIC50 of 5.30 to 6.30.

As for `C/C(=N\O)c1cnc(N)c2ccc(-n3cc(C)c4c3CC(C)(C)CC4=O)cc12` [Compound 102, (E)-1-(1-amino-4-(1-(hydroxyimino)ethyl)isoquinolin-6-yl)-3,6,6-trimethyl-6,7-dihydro-1H-indol-4(5H)-one], the pIC50 is 4.30 to 5.30.

`Cc1cn(-c2ccc3c(N)ncnc3c2OC2CCOCC2)c2c1C(=O)CC(C)(C)C2` [Compound 133, 1-(4-amino-8-(tetrahydro-2H-pyran-4-yloxy)quinazolin-7-yl)-3,6,6-trimethyl-6,7-dihydro-1H-indol-4(5H)-one] gave a negative-log IC50 (pIC50) of 5.30 to 6.30.

`COc1cc(COc2cc(-n3cc(C)c4c3CC(C)(C)CC4=O)cc3ncnc(N)c23)cc(OC)c1` [Compound 78, 1-(4-amino-5-(3,5-dimethoxybenzyloxy)quinazolin-7-yl)-3,6,6-trimethyl-6,7-dihydro-1H-indol-4(5H)-one] gave a pIC50 of 5.30 to 6.30.

With `Cc1cn(-c2ccc3c(N)ncnc3c2SCCNC(C)(C)C)c2c1C(=O)CC(C)(C)C2` [Compound 110, 1-(4-amino-8-(2-(tert-butylamino)ethylthio)quinazolin-7-yl)-3,6,6-trimethyl-6,7-dihydro-1H-indol-4(5H)-one], the negative-log IC50 (pIC50) is 5.30 to 6.30.

For the origin of these results see patent US7678803B2, “Quinazoline derivatives for the treatment of cancer” (Serenex, Inc., priority 2006, dated 2010).
